Measured values published in PMC11606603, “The membrane domains of mammalian adenylyl cyclases are lipid receptors” (eLife, 2024).
Several values for one entry are separate records, joined by “and”; a condition that tells them apart may be missing. Equal entries are not always repeated.

How the values were obtained:
Assay type in all cases: biochemical
mAC4 = target: T1, mAC4 (Homo sapiens, UniProt Q8NFM4); assay: AC assay, Gsα-stimulated mAC4 in membranes from transfected HEK293 cells; conditions: 20 µM fatty acid; 300 nM Gsα; single experiments
T1 construct: Human mAC genes were from GenScript and fitted with a C-terminal FLAG-tag; FLAG (C); made in house; host or cells: HEK293, permanently transfected; membrane preparation
T1 sequence (Q8NFM4 1-1077): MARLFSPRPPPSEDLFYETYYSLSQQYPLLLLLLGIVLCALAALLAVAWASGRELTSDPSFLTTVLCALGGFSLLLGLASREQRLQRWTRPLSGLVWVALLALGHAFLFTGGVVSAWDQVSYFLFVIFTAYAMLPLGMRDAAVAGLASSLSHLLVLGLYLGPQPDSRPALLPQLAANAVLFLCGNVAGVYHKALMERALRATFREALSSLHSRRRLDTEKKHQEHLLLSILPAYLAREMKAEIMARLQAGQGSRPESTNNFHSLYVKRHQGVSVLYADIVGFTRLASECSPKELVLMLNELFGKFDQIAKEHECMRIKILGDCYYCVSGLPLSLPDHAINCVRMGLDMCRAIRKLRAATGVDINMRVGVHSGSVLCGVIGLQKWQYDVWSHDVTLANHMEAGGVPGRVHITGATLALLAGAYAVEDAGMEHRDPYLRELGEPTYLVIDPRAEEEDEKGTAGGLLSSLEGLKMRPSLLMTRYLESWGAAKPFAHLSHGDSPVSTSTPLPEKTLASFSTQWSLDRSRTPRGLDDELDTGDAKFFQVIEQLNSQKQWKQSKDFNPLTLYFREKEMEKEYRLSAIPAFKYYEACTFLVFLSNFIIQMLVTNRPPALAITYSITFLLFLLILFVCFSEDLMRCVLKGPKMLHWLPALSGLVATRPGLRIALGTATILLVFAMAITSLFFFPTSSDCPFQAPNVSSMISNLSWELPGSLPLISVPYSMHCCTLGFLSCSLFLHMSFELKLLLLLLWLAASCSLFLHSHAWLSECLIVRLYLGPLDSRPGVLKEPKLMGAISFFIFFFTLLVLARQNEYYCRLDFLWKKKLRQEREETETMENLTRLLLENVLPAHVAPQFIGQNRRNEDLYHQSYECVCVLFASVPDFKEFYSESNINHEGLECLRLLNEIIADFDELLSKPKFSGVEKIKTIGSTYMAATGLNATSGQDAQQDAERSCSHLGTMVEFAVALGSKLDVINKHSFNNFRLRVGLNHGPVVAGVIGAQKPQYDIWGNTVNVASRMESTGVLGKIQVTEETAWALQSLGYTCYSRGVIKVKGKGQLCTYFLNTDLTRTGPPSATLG
Description: (§1) hAC sequences were from NCBI were: ADCY1: NM_021116.3; ADCY2: NM_020546.2; ADCY3: NM_004036.4; ADCY4: NM_001198568.2; ADCY5: NM_183357.2; ADCY6: NM_015270.4; ADCY7: NM_001114.4; ADCY8: NM_001115.2; ADCY9: NM_001116.3. Human mAC genes were from GenScript and fitted with a C-terminal FLAG-tag. […] The gene was synthesized by GenScript. HEK293 cells were maintained in Dulbeccos Modified Eagle Medium (DMEM) with 10% fetal bovine serum at 37°C and 5% CO2. Transfection with AC plasmids was with PolyJet (SignaGen, Frederick, MD, USA). Permanent cell lines were generated by selection for 7 days with 600 µg/ml G418 and maintained with 300 µg/ml For membrane preparation, cells were tyrpsinized, collected by centrifugation (3000 × g, 5 min) and lysed and homogenized in 20 mM HEPES, pH 7.5, 1 mM Ethylenediaminetetraacetic acid (EDTA), 2 mM MgCl2, 1 mM Dithiothreitol (DTT), one tablet of cOmplete, EDTA-free (per 50 ml) and 250 mM sucrose by 20 strokes in a potter homogenizer on ice. Debris was removed (5 min at 1000 × g, 0°C), membranes were collected at 100,000 × g, 60 min at 0°C, suspended and stored at −80°C in 20 mM MOPS, pH 7.5, 0.5 mM EDTA, 2 mM MgCl2. […] Three cerebral cortices were dissected and homogenized in 4.5 ml cold 48 mM Tris–HCl, pH 7.4, 12 mM MgC1_2, and 0.1 mM Ethylene glycol-bis(β-aminoethyl ether)-N,N,N′,N′-tetraacetic acid (EGTA) with a Polytron hand disperser (Kinematica AG, Switzerland). […] The pellet was washed once with 5 ml 1 mM KHCO3. The final suspension in 2 ml 1 mM KHCO3 was stored in aliquots at −80°C.
(§2) In a volume of 10 μl, AC activities were measured using 1 mM ATP, 2 mM MgCl2, 3 mM creatine phosphate, 60 μg/ml creatine kinase, and 50 mM MOPS pH 7.5. The cAMP assay kit from Cisbio (Codolet, France) was used for detection according to the supplier’s instructions. For each assay, a cAMP standard curve was established. EC50 and IC50 values were calculated by GraphPad Prism version 8.4.3 for Windows, GraphPad Software, San Diego, CA, USA, https://www.graphpad.com .

mAC1 = target: T2, mAC1 (Homo sapiens, UniProt Q08828); assay: AC assay, Gsα-stimulated mAC1 in membranes from transfected HEK293 cells; conditions: 20 µM fatty acid; 300 nM Gsα; single experiments
T2 construct: Human mAC genes were from GenScript and fitted with a C-terminal FLAG-tag; FLAG (C); made in house; host or cells: HEK293, permanently transfected; membrane preparation
Description: as §1, §2

mAC8 = target: T3, mAC8 (Homo sapiens, UniProt P40145); assay: AC assay, Gsα-stimulated mAC8 in membranes from transfected HEK293 cells; conditions: 20µM fatty acid concentration
T3 construct: Human mAC genes were from GenScript and fitted with a C-terminal FLAG-tag; FLAG (C); made in house; host or cells: HEK293, permanently transfected; membrane preparation
Description: as §1, §2

mAC6 = target: T4, mAC6 (Homo sapiens, UniProt O43306); assay: AC assay, Gsα-stimulated mAC6 in membranes from transfected HEK293 cells; conditions: 20µM fatty acid concentration
T4 construct: Human mAC genes were from GenScript and fitted with a C-terminal FLAG-tag; FLAG (C); made in house; host or cells: HEK293, permanently transfected; membrane preparation
Description: as §1, §2

mAC5 = target: T5, mAC5 (Homo sapiens, UniProt O95622); assay: AC assay, Gsα-stimulated mAC5 in membranes from transfected HEK293 cells; conditions: 20µM fatty acid concentration
T5 construct: Human mAC genes were from GenScript and fitted with a C-terminal FLAG-tag; FLAG (C); made in house; host or cells: HEK293, permanently transfected; membrane preparation
Description: as §1, §2

mAC9 = target: T6, mAC9 (Homo sapiens, UniProt O60503); assay: AC assay, Gsα-stimulated mAC9 in membranes from transfected HEK293 cells; conditions: 300 nM Gsα, single experiments
T6 construct: Human mAC genes were from GenScript and fitted with a C-terminal FLAG-tag; FLAG (C); made in house; host or cells: HEK293, permanently transfected; membrane preparation
Description: as §1, §2

mAC7 = target: T7, mAC7 (Homo sapiens, UniProt P51828); assay: AC assay, Gsα-stimulated mAC7 in membranes from transfected HEK293 cells; conditions: Figure 5-figure supplement 2 left, 20 µM
T7 construct: Human mAC genes were from GenScript and fitted with a C-terminal FLAG-tag; FLAG (C); made in house; host or cells: HEK293, permanently transfected; membrane preparation
Description: as §1, §2

mAC3 = target: T8, mAC3 (Homo sapiens, UniProt O60266); assay: AC assay, Gsα-stimulated mAC3 in membranes from transfected HEK293 cells; conditions: for mAC3 activity [%] (100% = 300nM Gsα stimulation): fatty acid 20 µM, individual experiments
T8 construct: Human mAC genes were from GenScript and fitted with a C-terminal FLAG-tag; FLAG (C); made in house; host or cells: HEK293, permanently transfected; membrane preparation
Description: as §1, §2

mAC2 = target: T9, mAC2 (Homo sapiens, UniProt Q08462); assay: AC assay, Gsα-stimulated mAC2 in membranes from transfected HEK293 cells; conditions: Figure 5-figure supplement 1 left, 20 µM
T9 construct: Human mAC genes were from GenScript and fitted with a C-terminal FLAG-tag; FLAG (C); made in house; host or cells: HEK293, permanently transfected; membrane preparation
Description: as §1, §2

T5 sequence (O95622 whole entry): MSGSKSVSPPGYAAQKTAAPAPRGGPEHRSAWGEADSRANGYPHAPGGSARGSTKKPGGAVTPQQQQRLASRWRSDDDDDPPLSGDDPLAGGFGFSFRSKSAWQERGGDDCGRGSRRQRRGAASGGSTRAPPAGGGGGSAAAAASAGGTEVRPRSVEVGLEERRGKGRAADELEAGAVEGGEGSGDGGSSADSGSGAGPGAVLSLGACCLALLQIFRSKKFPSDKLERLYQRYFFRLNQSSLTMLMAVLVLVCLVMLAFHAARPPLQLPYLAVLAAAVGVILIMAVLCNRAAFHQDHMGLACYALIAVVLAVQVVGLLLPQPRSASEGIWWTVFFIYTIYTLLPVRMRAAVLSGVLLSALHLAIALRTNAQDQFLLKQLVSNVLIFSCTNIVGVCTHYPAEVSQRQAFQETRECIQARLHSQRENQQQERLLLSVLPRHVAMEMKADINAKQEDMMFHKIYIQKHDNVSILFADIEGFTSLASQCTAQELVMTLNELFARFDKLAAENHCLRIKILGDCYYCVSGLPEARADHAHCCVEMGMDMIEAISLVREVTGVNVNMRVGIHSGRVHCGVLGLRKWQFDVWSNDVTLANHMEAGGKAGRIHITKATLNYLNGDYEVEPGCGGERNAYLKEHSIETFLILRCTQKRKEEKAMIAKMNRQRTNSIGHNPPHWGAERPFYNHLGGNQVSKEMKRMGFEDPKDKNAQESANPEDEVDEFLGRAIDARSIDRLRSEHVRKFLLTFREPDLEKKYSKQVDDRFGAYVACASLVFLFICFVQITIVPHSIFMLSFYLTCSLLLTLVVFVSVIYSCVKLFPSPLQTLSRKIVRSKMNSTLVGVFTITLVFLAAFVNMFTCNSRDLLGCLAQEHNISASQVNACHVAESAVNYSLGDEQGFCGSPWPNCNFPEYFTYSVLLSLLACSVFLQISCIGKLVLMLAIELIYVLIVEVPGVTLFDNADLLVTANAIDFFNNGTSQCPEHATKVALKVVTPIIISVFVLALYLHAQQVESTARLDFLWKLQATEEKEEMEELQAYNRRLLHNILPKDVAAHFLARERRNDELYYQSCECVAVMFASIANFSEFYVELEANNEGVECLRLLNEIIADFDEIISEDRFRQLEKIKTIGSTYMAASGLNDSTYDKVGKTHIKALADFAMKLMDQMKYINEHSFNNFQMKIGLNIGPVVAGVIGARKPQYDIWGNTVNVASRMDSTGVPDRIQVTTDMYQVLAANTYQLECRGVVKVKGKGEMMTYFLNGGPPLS
T9 sequence (Q08462 whole entry): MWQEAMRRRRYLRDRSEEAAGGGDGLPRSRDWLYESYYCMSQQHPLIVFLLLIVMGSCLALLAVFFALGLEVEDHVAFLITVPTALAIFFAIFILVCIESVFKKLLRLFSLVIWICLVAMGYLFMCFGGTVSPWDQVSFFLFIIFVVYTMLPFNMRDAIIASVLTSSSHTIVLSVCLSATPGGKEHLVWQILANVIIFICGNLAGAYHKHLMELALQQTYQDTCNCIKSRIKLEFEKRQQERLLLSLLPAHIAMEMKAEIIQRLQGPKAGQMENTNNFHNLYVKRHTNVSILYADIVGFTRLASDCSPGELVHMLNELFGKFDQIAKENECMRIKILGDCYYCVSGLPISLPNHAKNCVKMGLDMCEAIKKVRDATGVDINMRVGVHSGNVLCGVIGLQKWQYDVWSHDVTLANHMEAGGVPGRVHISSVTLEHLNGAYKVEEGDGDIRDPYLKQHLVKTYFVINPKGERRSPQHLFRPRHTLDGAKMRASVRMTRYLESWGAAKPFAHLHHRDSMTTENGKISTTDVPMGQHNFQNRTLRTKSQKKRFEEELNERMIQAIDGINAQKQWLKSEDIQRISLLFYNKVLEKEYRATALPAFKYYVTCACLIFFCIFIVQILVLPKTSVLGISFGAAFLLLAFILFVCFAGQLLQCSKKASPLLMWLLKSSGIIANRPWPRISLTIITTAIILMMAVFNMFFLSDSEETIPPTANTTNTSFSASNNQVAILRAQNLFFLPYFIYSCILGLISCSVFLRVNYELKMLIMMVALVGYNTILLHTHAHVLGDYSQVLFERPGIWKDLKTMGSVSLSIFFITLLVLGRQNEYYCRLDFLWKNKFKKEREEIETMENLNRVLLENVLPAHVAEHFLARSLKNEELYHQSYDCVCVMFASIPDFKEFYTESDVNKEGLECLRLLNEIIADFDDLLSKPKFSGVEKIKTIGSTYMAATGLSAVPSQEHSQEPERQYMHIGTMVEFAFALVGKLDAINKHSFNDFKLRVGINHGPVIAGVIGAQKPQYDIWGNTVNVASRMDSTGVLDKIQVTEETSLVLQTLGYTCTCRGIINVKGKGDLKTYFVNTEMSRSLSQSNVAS
T9 sequence (P63092 2-394 Q227L partner): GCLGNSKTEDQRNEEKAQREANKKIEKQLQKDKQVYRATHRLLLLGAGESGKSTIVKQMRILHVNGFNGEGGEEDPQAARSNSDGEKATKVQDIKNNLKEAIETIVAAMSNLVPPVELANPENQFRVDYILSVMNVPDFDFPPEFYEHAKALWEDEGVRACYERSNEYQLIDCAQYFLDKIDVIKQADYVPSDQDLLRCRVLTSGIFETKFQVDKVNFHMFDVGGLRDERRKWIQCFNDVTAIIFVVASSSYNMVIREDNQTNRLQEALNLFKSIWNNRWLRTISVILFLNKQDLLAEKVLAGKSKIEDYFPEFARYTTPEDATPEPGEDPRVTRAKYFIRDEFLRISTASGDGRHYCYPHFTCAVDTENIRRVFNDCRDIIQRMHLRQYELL
T4 sequence (O43306 whole entry): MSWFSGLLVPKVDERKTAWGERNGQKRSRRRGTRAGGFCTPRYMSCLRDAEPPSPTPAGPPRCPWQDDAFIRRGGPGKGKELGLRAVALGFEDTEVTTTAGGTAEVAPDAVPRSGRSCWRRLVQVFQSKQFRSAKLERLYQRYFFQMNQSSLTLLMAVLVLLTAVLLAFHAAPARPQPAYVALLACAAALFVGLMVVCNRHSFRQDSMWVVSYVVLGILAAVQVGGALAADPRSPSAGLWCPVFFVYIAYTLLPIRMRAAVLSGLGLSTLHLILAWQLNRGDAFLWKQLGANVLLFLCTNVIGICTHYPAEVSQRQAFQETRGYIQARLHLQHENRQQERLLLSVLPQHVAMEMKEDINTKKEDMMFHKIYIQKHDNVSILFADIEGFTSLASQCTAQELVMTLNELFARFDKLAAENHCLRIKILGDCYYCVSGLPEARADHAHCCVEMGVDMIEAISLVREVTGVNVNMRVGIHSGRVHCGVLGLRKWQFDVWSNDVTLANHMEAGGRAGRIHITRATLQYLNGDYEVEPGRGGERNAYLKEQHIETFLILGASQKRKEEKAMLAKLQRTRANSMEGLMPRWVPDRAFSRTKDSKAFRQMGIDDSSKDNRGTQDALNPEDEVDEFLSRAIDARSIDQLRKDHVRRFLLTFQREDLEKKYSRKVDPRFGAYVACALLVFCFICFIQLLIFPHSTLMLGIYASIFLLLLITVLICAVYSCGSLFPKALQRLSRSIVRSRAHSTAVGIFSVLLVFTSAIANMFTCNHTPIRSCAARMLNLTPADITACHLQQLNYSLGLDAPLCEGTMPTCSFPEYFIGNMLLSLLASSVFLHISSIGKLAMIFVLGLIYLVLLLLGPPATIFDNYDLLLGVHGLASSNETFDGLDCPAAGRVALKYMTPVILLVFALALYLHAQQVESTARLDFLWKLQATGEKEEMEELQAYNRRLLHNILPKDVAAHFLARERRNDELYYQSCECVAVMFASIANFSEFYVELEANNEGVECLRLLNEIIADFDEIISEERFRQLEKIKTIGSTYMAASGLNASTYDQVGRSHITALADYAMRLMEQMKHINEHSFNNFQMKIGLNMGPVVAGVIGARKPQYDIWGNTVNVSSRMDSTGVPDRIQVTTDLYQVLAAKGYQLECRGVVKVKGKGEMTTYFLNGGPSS
T7 sequence (P51828 whole entry): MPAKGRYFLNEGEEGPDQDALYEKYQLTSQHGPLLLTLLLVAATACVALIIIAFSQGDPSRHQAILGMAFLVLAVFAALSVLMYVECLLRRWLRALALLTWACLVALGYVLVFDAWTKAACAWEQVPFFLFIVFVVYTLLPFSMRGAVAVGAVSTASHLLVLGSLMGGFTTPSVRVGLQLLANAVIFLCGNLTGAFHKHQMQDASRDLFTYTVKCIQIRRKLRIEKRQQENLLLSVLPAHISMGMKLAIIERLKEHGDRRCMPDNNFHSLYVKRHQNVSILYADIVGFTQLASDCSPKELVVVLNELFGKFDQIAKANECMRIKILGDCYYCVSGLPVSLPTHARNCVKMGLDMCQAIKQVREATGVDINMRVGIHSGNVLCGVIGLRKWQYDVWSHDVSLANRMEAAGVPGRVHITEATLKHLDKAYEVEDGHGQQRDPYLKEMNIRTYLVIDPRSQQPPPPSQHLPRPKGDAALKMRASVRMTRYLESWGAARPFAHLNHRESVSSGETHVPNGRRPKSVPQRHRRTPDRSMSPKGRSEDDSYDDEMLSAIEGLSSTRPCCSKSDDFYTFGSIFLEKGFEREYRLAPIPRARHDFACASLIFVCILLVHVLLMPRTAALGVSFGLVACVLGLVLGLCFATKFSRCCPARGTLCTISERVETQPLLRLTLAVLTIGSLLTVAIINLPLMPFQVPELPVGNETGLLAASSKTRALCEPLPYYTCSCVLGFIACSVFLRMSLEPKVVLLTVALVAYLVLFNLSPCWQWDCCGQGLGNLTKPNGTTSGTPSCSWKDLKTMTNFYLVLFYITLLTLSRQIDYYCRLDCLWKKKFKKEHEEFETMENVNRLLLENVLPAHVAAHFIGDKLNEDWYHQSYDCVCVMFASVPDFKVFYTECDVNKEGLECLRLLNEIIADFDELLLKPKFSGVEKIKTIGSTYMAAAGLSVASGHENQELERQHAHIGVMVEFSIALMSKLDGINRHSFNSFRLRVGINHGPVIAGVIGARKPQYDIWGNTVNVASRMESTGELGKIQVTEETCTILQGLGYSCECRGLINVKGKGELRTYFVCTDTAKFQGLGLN
T7 sequence (P63092 2-394 Q227L partner): as the sequence (P63092 2-394 Q227L partner) above

SMILES | mAC4 activity [%] (100% = 300nM Gsα stimulation); 20µM fatty acid concentration (mAC4) | mAC1 activity [%] (100% = 300nM Gsα stimulation); 20µM fatty acid concentration (mAC1) | mAC8 activity [%] (100% = 300nM Gsα stimulation) (mAC8) | mAC6 activity [%] (100% = 300nM Gsα stimulation) (mAC6) | mAC5 activity [%] (100% = 300nM Gsα stimulation) (mAC5) | mAC9 activity [%] (100% = 300nM Gsα stimulation); 20µM fatty acid concentration (mAC9; 20 µM fatty acid) | mAC7 activity [%] (100% = 300nM Gsα stimulation); 20µM fatty acid concentration (mAC7) | mAC3 activity [%] (100% = 300nM Gsα stimulation) (mAC3) | mAC2 activity [%] (100% = 300nM Gsα stimulation); 20µM fatty acid concentration (mAC2) | mAC9 activity (%);(100% = Gsα stimulation) stimulated by 300nM Gsα (mAC9; 1 µM fatty acid) | mAC9 activity (%);(100% = Gsα stimulation) stimulated by 300nM Gsα (mAC9; 3 µM fatty acid) | mAC9 activity (%);(100% = Gsα stimulation) stimulated by 300nM Gsα (mAC9; 6 µM fatty acid) | mAC9 activity (%);(100% = Gsα stimulation) stimulated by 300nM Gsα (mAC9; 10 µM fatty acid) | mAC9 activity (%);(100% = Gsα stimulation) stimulated by 300nM Gsα (mAC9; 20 µM fatty acid) | Effect of lipid on 300 nM Gsα-stimulated mAC3 (mAC3; 20 µM, in words)
CCCCCCCCCC(O)CCCCCCCC(=O)O (stereo not drawn) [9-HSA, 9-Hydroxystearic acid] | 134% and 93% | 95% and 93% | 67% and 108% | 122% and 118% | 100% and 102% | 93% and 157% | 161% and 83% | 104% and 110% | 89% and 75% | – | – | – | – | – | –
CCCCCCCCCCCCCC(=O)O [Myristic acid, Myristic (tetradecanoic) acid] | 71% and 59% and 97% | 91% and 96% and 101% | 119% and 130% and 99% | 98% and 72% and 83% | 105% and 80% and 76% | 185% and 310% and 168% and 189% and 240% | 94% and 152% and 85% and 110% | 90% and 108% and 224% and 226% | 102% and 121% and 90% and 101% | 82% and 122% and 127% and 109% and 126% and 137% | 129% and 111% and 136% and 125% | 104% and 129% and 178% and 179% and 144% and 168% | 130% and 135% and 224% and 171% and 187% and 200% and 115% | 168% and 189% and 240% and 185% and 310% | no significant effect
